Assay results as given in US6113896A, “Pharmaceutical compositions containing ecotin and homologs thereof” (priority 1994, dated 2000).

What was measured:
Assay type in all cases: biochemical
normal human plasma [1] = experiment: Prothrombin time (PT) clotting assay; conditions: initiation by TF
Protocol: Coagulation assays and Prolongation of Clotting Times Clotting times were performed using the ACL 300 Research Coagulation Analyzer. For the prothrombin time (PT) assays, the incubation time was set at 120 sec and acquisition time at 120 to 600 sec depending on the expected outcome of the assay. Membranes from 293 cells expressing TF (Paborsky, L. R. et al., Biochemistry 28:8072-8077 [1989]) were premixed with CaCl2. The sample (plasma and inhibitor) and reagent (CaCl2 /TF) were automatically mixed together after a 2 min incubation at 37° C. The clotting time was determined by optical assessment. The total incubation time of inhibitor with plasma before addition of CaCl2 /TF was ~5 min. Final concentrations were 78 nM to 7.8 μM ecotin, 3.7 nM TF (0.9 μg/ml by protein content), 22.5 mM CaCl2, and 50% plasma in a total volume of 160 μl.

human FXIIa = experiment: Equilibrium inhibition constant with Factor XIIa; conditions: apparent value, 0.5 mM S2302
Protocol: (§1) Determination of Equilibrium Inhibition Constants Apparent Ki values (Ki *) for the inhibition of the enzymes tested by ecotin and mutants were measured as follows. All reactions were performed at 25° C. Stock solutions of trypsin were quantitated by active site burst titration with MUGB as previously described (Jameson, G. W. et al., Biochem. J. 131:107-117 [1973]) using a Fluoroskan II plate reader at excitation wavelength of 355 nm and emission wavelength of 460 nm. Data was collected on a Macintosh SE20 using either Delta Soft II Fl v3.31 software (BioMetallics). Active site titrated trypsin was then used to quantitate ecotin active sites using BAPA as the substrate; a stoichiometry of 1:1 was assumed (Chung, C. H. et al., supra). Factor Xa, Factor XIIa, plasma kallikrein, or HLE were then quantitated by active site titration using ecotin as a standard, again assuming 1:1 stoichiometry. In addition, the concentration of HLE was quantitated by methods previously described using a calibrated stock of α1 -proteinase inhibitor to titrate the HLE active sites (Beatty, K. et al., J. Biol. Chem. 255:3931-3934 [1980]); the same HLE active site concentration was determined using both ecotin and α1 -proteinase inhibitor. […]

human plasma kallikrein = experiment: Equilibrium inhibition constant with plasma kallikrein
Protocol: as §1

normal human plasma [2] = experiment: Activated partial thromboplastin time (APTT) clotting assay; conditions: ellagic acid
Protocol: For the activated partial thromboplastin time (APTT) assays, the activation time was set at 120 sec and acquisition time at 300 to 600 sec depending on the expected outcome of the assay. Citrated normal human plasma and inhibitor were incubated together. The sample (plasma and inhibitor) and activator (Instrumentation Laboratories Ellagic acid/Phospholipid mix Test Reagent) were automatically pipetted and incubated together for 2 min at 37° C., then CaCl2 was added and clotting time determined by means of optical assessment. The total incubation time of inhibitor with plasma was ca. 3 min before addition of activator, and 5 min before addition of CaCl2. Final concentrations were 0.57 nM to 5.7 μM ecotin, 15.3 ug protein/ml 293 cell membranes, 8.3 uM ellagic acid, 8.3 mM CaCl2, and 33.3% plasma in a total volume of 162 μl.

Ecotin: E. coli periplasmic protein having the 142 amino acid residue sequence reported by McGrath et al.; recombinant, P1 Met84
concentration causing 10-fold prolongation of clotting time, PT (normal human plasma [1]): ~2 μM | concentration causing 10-fold prolongation of clotting time, PT (normal human plasma [1]; listed as Wild type ecotin): ~ 2 μM | Ki (human FXIIa): 0.124 ± 0.026 nM | Ki (human plasma kallikrein; plasma kallikrein=1.3 nM): 0.175 ± 0.02 nM | Ki (human plasma kallikrein; plasma kallikrein=4.3 nM): 0.151 ± 0.02 nM | concentration causing 10-fold prolongation of clotting time, APTT (normal human plasma [2]): ~0.3 μM | concentration causing 10-fold prolongation of clotting time, APTT (normal human plasma [2]; listed as Wild type ecotin): ~ 0.3 μM
